US7563864B2, “Prolyl endopeptidase mediated destruction of T cell epitopes in whole gluten” (Celiac Sprue Research Foundation, priority 2004, dated 2009)

Legend:
Type in all cases: cell-based, human
Parameters in all cases: key: −: no response; Stimulatory index (SI; T + APC + TG2-treated peptide divided by T + APC) of 3-10; ++: SI above 10
Details in all cases: DQ2+ APC, 5 μM TG2-treated peptide, 3H thymidine incorporation
[1] = system: intestinal T cell line 421.1.4; assay: T cell proliferation assay, polyclonal T cell line 421.1.4
Text: (§1) T cell assays—The generation of polyclonal gluten-specific T cell lines derived from ex vivo gluten challenged small intestinal biopsy specimens of adult Celiac Sprue patients have been described elsewhere. For this study 14 different intestinal T cell lines derived from 13 DQ2+celiac patients were selected based on two basic criteria; effective recognition of TG2-treated digests of gluten and significant responses to at least two different gluten epitopes (Table 2). The generation of intestinal T cell clones and the epitope specificity of these clones, except TCC 387.3, has been described elsewhere (10). The TCC 387.3 recognizes a TG2-dependent epitope, defined as γ-VI that is contained within residues 62-72 (PQQPFPQQPQQ) of recombinant γ-5 gliadin. The freeze-dried, proteolyzed gluten samples were dissolved in PBS with 2 mM CaCl2 and treated with 150 μg/ml human recombinant TG2 (14) or, in some experiments 200 μg/ml guinea pig transglutaminase (Sigma T-5398), for 2 hours at 37° C. The TG2-treated samples were incubated overnight in triplicates on U-bottomed 96 well plates with 75 000 cells per well of DQ2 homozygous, irradiated (75 Gy) EBV-transformed B-lymphoblastoid cell lines in a volume of 100 μl 15% pooled, inactivated human serum and RPMI1640. After the incubation 50 μl of freshly thawed T cells (1×10^6 cells/ml) were added to each well. The proliferation in the wells was evaluated by ^3H thymidine incorporation from 48-72 hours after the addition of the T cells.

[2] = system: intestinal T cell line 502.1.2; assay: T cell proliferation assay, polyclonal T cell line 502.1.2
Text: as §1

[3] = system: intestinal T cell line 432.2.1; assay: T cell proliferation assay, polyclonal T cell line 432.2.1
Text: as §1

[4] = system: intestinal T cell line 488.3.1; assay: T cell proliferation assay, polyclonal T cell line 488.3.1
Text: as §1

[5] = system: intestinal T cell line 437.1.1; assay: T cell proliferation assay, polyclonal T cell line 437.1.1
Text: as §1

[6] = system: intestinal T cell line 494.1.1; assay: T cell proliferation assay, polyclonal T cell line 494.1.1
Text: as §1

[7] = system: intestinal T cell line 461.1.4; assay: T cell proliferation assay, polyclonal T cell line 461.1.4
Text: as §1

[8] = system: intestinal T cell line 482.1.4; assay: T cell proliferation assay, polyclonal T cell line 482.1.4
Text: as §1

[9] = system: intestinal T cell line 446.1.3; assay: T cell proliferation assay, polyclonal T cell line 446.1.3
Text: as §1

[10] = system: intestinal T cell line 496.1.2; assay: T cell proliferation assay, polyclonal T cell line 496.1.2
Text: as §1

[11] = system: intestinal T cell line 437.1.3; assay: T cell proliferation assay, polyclonal T cell line 437.1.3
Text: as §1

[12] = system: intestinal T cell line 491.1.3; assay: T cell proliferation assay, polyclonal T cell line 491.1.3
Text: as §1

[13] = system: intestinal T cell line 422.4.2; assay: T cell proliferation assay, polyclonal T cell line 422.4.2
Text: as §1

[14] = system: intestinal T cell line 451.1.1; assay: T cell proliferation assay, polyclonal T cell line 451.1.1
Text: as §1

Row | Sequence | Response to TG2-treated gluten peptides (stimulatory index) [1] | Response to TG2-treated gluten peptides (stimulatory index) [2] | Response to TG2-treated gluten peptides (stimulatory index) [3] | Response to TG2-treated gluten peptides (stimulatory index) [4] | Response to TG2-treated gluten peptides (stimulatory index) [5] | Response to TG2-treated gluten peptides (stimulatory index) [6] | Response to TG2-treated gluten peptides (stimulatory index) [7] | Response to TG2-treated gluten peptides (stimulatory index) [8] | Response to TG2-treated gluten peptides (stimulatory index) [9] | Response to TG2-treated gluten peptides (stimulatory index) [10] | Response to TG2-treated gluten peptides (stimulatory index) [11] | Response to TG2-treated gluten peptides (stimulatory index) [12] | Response to TG2-treated gluten peptides (stimulatory index) [13] | Response to TG2-treated gluten peptides (stimulatory index) [14]
1 | GIIQPQQPAQL [γ-II] | + (Stimulatory index (SI; T + APC + TG2-treated peptide divided by T + APC) of 3-10) | − | − | − | − | − | − | − | ++ (SI above 10) | ++ (SI above 10) | − | − | − | ++ (SI above 10)
2 | LQLQPFPQPQLPYPQPQLPYPQPQLPYPQPQPF [αG-33] | ++ (SI above 10) | ++ (SI above 10) | ++ (SI above 10) | ++ (SI above 10) | ++ (SI above 10) | ++ (SI above 10) | + (Stimulatory index (SI; T + APC + TG2-treated peptide divided by T + APC) of 3-10) | ++ (SI above 10) | ++ (SI above 10) | ++ (SI above 10) | ++ (SI above 10) | ++ (SI above 10) | ++ (SI above 10) | ++ (SI above 10)
3 | LQPQQPFPQQPQQPYPQQPQ [γ-III and γ-VI] | + (Stimulatory index (SI; T + APC + TG2-treated peptide divided by T + APC) of 3-10) | + (Stimulatory index (SI; T + APC + TG2-treated peptide divided by T + APC) of 3-10) | − | + (Stimulatory index (SI; T + APC + TG2-treated peptide divided by T + APC) of 3-10) | − | ++ (SI above 10) | + (Stimulatory index (SI; T + APC + TG2-treated peptide divided by T + APC) of 3-10) | − | − | + (Stimulatory index (SI; T + APC + TG2-treated peptide divided by T + APC) of 3-10) | − | − | − | −
4 | PQPQLPYPQPQLPY [α-II] | + (Stimulatory index (SI; T + APC + TG2-treated peptide divided by T + APC) of 3-10) | + (Stimulatory index (SI; T + APC + TG2-treated peptide divided by T + APC) of 3-10) | ++ (SI above 10) | ++ (SI above 10) | + (Stimulatory index (SI; T + APC + TG2-treated peptide divided by T + APC) of 3-10) | ++ (SI above 10) | + (Stimulatory index (SI; T + APC + TG2-treated peptide divided by T + APC) of 3-10) | + (Stimulatory index (SI; T + APC + TG2-treated peptide divided by T + APC) of 3-10) | ++ (SI above 10) | + (Stimulatory index (SI; T + APC + TG2-treated peptide divided by T + APC) of 3-10) | + (Stimulatory index (SI; T + APC + TG2-treated peptide divided by T + APC) of 3-10) | ++ (SI above 10) | ++ (SI above 10) | + (Stimulatory index (SI; T + APC + TG2-treated peptide divided by T + APC) of 3-10)
5 | QLQPFPQPQLPY [α-I] | − | ++ (SI above 10) | − | + (Stimulatory index (SI; T + APC + TG2-treated peptide divided by T + APC) of 3-10) | − | + (Stimulatory index (SI; T + APC + TG2-treated peptide divided by T + APC) of 3-10) | − | − | + (Stimulatory index (SI; T + APC + TG2-treated peptide divided by T + APC) of 3-10) | ++ (SI above 10) | + (Stimulatory index (SI; T + APC + TG2-treated peptide divided by T + APC) of 3-10) | + (Stimulatory index (SI; T + APC + TG2-treated peptide divided by T + APC) of 3-10) | + (Stimulatory index (SI; T + APC + TG2-treated peptide divided by T + APC) of 3-10) | −
6 | QPQQPQQSFPQQQRP [γ-I] | − | − | + (Stimulatory index (SI; T + APC + TG2-treated peptide divided by T + APC) of 3-10) | − | − | − | − | − | − | − | + (Stimulatory index (SI; T + APC + TG2-treated peptide divided by T + APC) of 3-10) | + (Stimulatory index (SI; T + APC + TG2-treated peptide divided by T + APC) of 3-10) | − | −
